Assay results reported in US20130231316A1, “Drug Combination Comprising a Selective Serotonin Reuptake Inhibitor and a Glucocorticoid Receptor Antagonist for the Treatment of Depression” (priority 2004, published 2013).
Where two headings read alike, the source gives them in different places.

Tested on: 5-HT1A autoreceptor
Conditions: fluoxetine 10 mg/kg i.p. daily, Org 34850 15 mg/kg i.p. twice daily or vehicle, fall following i.p. injection of fluoxetine 10 mg/kg, prefrontal cortex
Protocol: In experimental animals this desensitization can be measured using microdialysis in the prefrontal cortex and a combination of local administration of an SSRI (fluoxetine) in the region of the probe to block local uptake and systemic injection which affects all uptake sites and leads to 5-HT1A autoreceptor activation.
Studies were performed on Hooded Lister rats housed in groups of three with food and water available ad libitum. Animals were kept in controlled environmental conditions: temperature (20° C.) and humidity (30-50%) on a 12 h light/dark cycle (lights on 07.00 a.m.). Each cage received the same treatment and animals from a single cage studied on the same day to avoid social isolation. Animals underwent two treatments; vehicle or GR antagonist (15 mg/kg Org 34850, intraperitoneally (i.p.)) given as twice daily injections at 07:00-07:30 and 19:00-19:30. All animals received a single daily injection of fluoxetine (10 mg/kg in sterile water i.p.) given in the morning. Treatment periods were 0 (control), 3, 7 or 14 days.
For microdialysis animals were anaesthetised with chloral hydrate (500 mg/kg i.p. plus supplementary doses as required). Surgery was undertaken to position a microdialysis probe in the right prefrontal cortex (stereotaxic coordinates: rostral +3.2 mm, lateral 0.5 mm, ventral −4.6 mm from bregma and dura surface). The probe was perfused with artificial cerebrospinal fluid (aCSF) for 3 h until stable basal level of 5-HT is achieved. Samples were collected every 20 minutes and analysed by HPLC with electrochemical detection. The experimental protocol comprised three phases: i) Basal extracellular levels of 5-HT were measured for 60 min.; ii) Fluoxetine (10 μM) was added to the aCSF to block local uptake in order to measure total release rate. Samples were collected for 80 min. and iii) Fluoxetine was injected i.p. (10 mg/kg) to block all uptake sites, including at the autoreceptor, and samples were collected for 120 min. The magnitude of the fall in measured 5-HT levels after this injection was used as a measure of autoreceptor sensitivity.

## CNCCC(Oc1ccc(C(F)(F)F)cc1)c1ccccc1 (stereo not drawn) [fluoxetine]
3 days pretreatment
  Mean Fall in 5-HT levels: 7.59 fmol
7 days pretreatment
  Mean Fall in 5-HT levels: 7.37 fmol
14 days pretreatment
  Mean Fall in 5-HT levels: 4.85 fmol
